Data taken from PubChem BioAssay AID517 (Columbia University Molecular Screening Center, 2006).
Calls of active or inactive are those of the source.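 Rule for the calls: active = activity score of 15 or more, from fitted potency or summed per-dose inhibition z-scores, roughly IC50 of 5 µM; inactive = the rest.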

Tested on: HUVEC TNFalpha-induced E-selectin immunofluorescence imaging
Test: E-selectin expression inhibitors, dose response, confirmation, imaging, HUVEC, immunofluorescence, TNFalpha stimulation (AID 517)

Row | SMILES | IC50
1 | CN(C(=O)c1ccc2c(=O)n3c(nc2c1)CCCCC3)c1ccccc1 | > 8 µM (inactive)
2 | O=C1CC(c2ccc(S(=O)(=O)N3CCN(c4ccccc4)CC3)cc2)CN1 (stereo unspecified) | > 8 µM (inactive)
3 | O=C1c2ccccc2S(=O)(=O)N1Cc1nnc(-c2ccccc2Br)o1 | > 8 µM (inactive)
4 | CCOC(=O)C1CCCN(C(=O)c2sc3nc(-c4ccccc4)cn3c2C)C1 (stereo unspecified) | > 8 µM (inactive)
5 | COc1ccc(CCN2C(=O)CC(N3CCN(S(=O)(=O)c4ccccc4)CC3)C2=O)cc1 (stereo unspecified) | > 8 µM (inactive)
6 | Cc1ccc(Nc2nc(N)nc(CN3CCCCCC3)n2)cc1 | > 8 µM (inactive)
7 | COc1ccc(OC(=O)c2cc3ccccc3o2)cc1 | > 8 µM (inactive)
8 | O=C(O)CC1CCCC(c2ccccc2)C1=O (stereo unspecified) | > 8 µM (inactive)
9 | Cc1cc(C)n(C2=NS(=O)(=O)c3ccccc32)n1 | > 8 µM (inactive)
10 | COc1ccc(-c2nnc(-c3cccs3)o2)cc1OC | > 8 µM (inactive)
11 | C=CCNc1nc(C)nc(OC)n1 | > 8 µM (inactive)
12 | CC(=O)Nc1sc2c(c1CN1CCN(c3ccccn3)CC1)CCCC2 | > 8 µM (inactive)
13 | O=C(Nc1cccc(F)c1)c1ccc2c(c1)OCO2 | > 8 µM (inactive)
14 | COc1ccc(CCn2c(O)c(C=NCc3cccnc3)c(=O)[nH]c2=O)cc1OC | > 8 µM (inactive)
15 | FC(F)Oc1ccc(-c2csc(Cc3nnc4n3CCCCC4)n2)cc1 | > 8 µM (inactive)
16 | COc1ccc(C(=O)CSc2nnc(C3CCCCC3)n2N)c(OC)c1 | > 8 µM (inactive)
17 | Cc1c(O)c(CN2CCCC2)cc2c1oc(=O)c1ccccc12 | > 8 µM (inactive)
18 | O=S1(=O)C=C(Sc2nc3ccccc3s2)c2ccccc21 | 1.85 µM
19 | COc1ccccc1-c1c(C)nn2c(C)c(C(C)=O)cnc12 | > 8 µM (inactive)
20 | Cc1cc(N2C(=O)C3C4C=CC(C4)C3C2=O)ccc1Br (stereo unspecified) | > 8 µM (inactive)
21 | COc1ccc(NC(=O)CSc2nnc(-c3ccccc3C)n2C)cc1 | > 8 µM (inactive)
22 | COC(=O)CCC(=O)Nc1cccc(Br)c1 | > 8 µM (inactive)
23 | CC(C)Cn1c(=O)c(C(=O)Nc2ccccc2S(N)(=O)=O)c(O)c2ccccc21 | > 8 µM (inactive)

Row | SMILES | IC50
24 | CC1(C)CC(=O)C(C=NC(CCC(N)=O)C(=O)O)=C(O)C1 (stereo unspecified) | > 8 µM (inactive)
25 | Cc1cc2oc(=O)cc(CN3CCCCC3)c2cc1C(C)C | > 8 µM (inactive)
26 | CC1Oc2ccccc2N(CC(=O)N(Cc2ccccc2)Cc2ccccn2)C1=O (stereo unspecified) | > 8 µM (inactive)
27 | C=CS(=O)(=O)c1ccc(Oc2ccc(S(=O)(=O)C=C)cc2)cc1 | 0.55 µM
28 | O=C(c1ccc2c3c(cccc13)C(=O)N(O)C2=O)N1CCCCC1 | > 8 µM (inactive)
29 | COCCNC(=O)C1CCCN(c2ncccn2)C1 (stereo unspecified) | > 8 µM (inactive)
30 | Cc1ccc(O)c(C(=O)c2cc(C#N)c(=O)n(CC3CCCO3)c2)c1 (stereo unspecified) | > 8 µM (inactive)
31 | O=C(CSc1ccc(-c2ccccc2)nn1)N1CCOCC1 | > 8 µM (inactive)
32 | CN(CCc1ccccn1)c1ncnc2[nH]ncc12 | > 8 µM (inactive)
33 | Cc1nc2ccccc2nc1OCC(=O)Nc1cc(C(F)(F)F)ccc1N1CCOCC1 | > 8 µM (inactive)
34 | CC[C@H]1CN2CCc3cc(OC)c(OC)cc3[C@@H]2C[C@@H]1C[C@H]1NCCc2cc(OC)c(OC)cc21 | 0.08 µM
35 | COCCn1c(=O)[nH]c2cc(C(=O)NCc3cccnc3)ccc2c1=O | > 8 µM (inactive)
36 | Cc1cc(NC(=O)CS(=O)(=O)c2cn(Cc3ccccc3Cl)c3ccccc23)no1 | > 8 µM (inactive)
37 | Cc1ccc(SC(C)c2nc(-c3ccccc3)no2)cc1 (stereo unspecified) | > 8 µM (inactive)
38 | Cc1cc(NC(=O)COC(=O)c2cccc(S(=O)(=O)N3CCOCC3)c2)no1 | > 8 µM (inactive)
39 | O=c1c2ccccc2nc(SCc2cn3ccsc3n2)n1-c1ccc(F)cc1 | > 8 µM (inactive)
40 | Cc1ccc(C)c(-n2c(Cc3cc(=O)[nH]c(=O)[nH]3)nnc2SCC(=O)NCc2ccco2)c1 | > 8 µM (inactive)
41 | O=C(COn1nnc2ccc(C(F)(F)F)cc21)Nc1nnc(-c2ccccc2)o1 | > 8 µM (inactive)
42 | Cc1c(NC2=NC3(CCCCC3)Cc3ccccc32)c(=O)n(-c2ccccc2)n1C | > 8 µM (inactive)
43 | Cc1ccc(N=C2NC(=O)CS2)c(C)c1 | > 8 µM (inactive)
44 | N#Cc1c(NCc2ccccc2)ccnc1NCc1cccnc1 | > 8 µM (inactive)
45 | Cc1cnc(NC(=O)CSc2nc3ccccc3c(=O)[nH]2)s1 | > 8 µM (inactive)
46 | Cc1oc(-c2ccccc2Cl)nc1CSCC(=O)N1CCCC1 | > 8 µM (inactive)

Row | SMILES | IC50
47 | COc1cccc2c1C(=O)c1c(O)c3c(c(O)c1C2=O)C[C@@](O)(C(=O)CO)C[C@@H]3O[C@H]1C[C@H](N)[C@H](O)[C@H](C)O1 | 3.2 µM
48 | O=C(O)C1C2CCC(C2)C1C(=O)NCCCn1ccnc1 (stereo unspecified) | > 8 µM (inactive)
49 | CC1CN(C(=O)CSc2nnc(-c3ccncc3)n2-c2ccccc2)CC(C)O1 (stereo unspecified) | > 8 µM (inactive)
50 | Cc1cc2c(cc1C)-c1nnnn1C(C)(C)C2 | > 8 µM (inactive)
51 | O=C1CC(N2CCN(c3cccc(C(F)(F)F)c3)CC2)C(=O)N1c1ccccc1 (stereo unspecified) | > 8 µM (inactive)
52 | OC1C[N+]2(CCCCC2)C1 | > 8 µM (inactive)
53 | COc1ccccc1OCC(O)COC(N)=O (stereo unspecified) | > 8 µM (inactive)
54 | CC1CCN(CCC(=O)Nc2ccc(Br)cc2)CC1 | > 8 µM (inactive)
55 | COc1cccc2c1C(=O)c1c(O)c3c(c(O)c1C2=O)C[C@@](O)(C(C)=O)C[C@@H]3O[C@H]1C[C@H](N)[C@H](O)[C@H](C)O1 | 0.63 µM
56 | CCN(CC)S(=O)(=O)c1ccc2[nH]cc(C(=O)NCCC3=CCCCC3)c(=O)c2c1 | > 8 µM (inactive)
57 | CN(Cc1ccccc1)Cc1nc2c([nH]1)c(=O)[nH]c(=O)n2C | > 8 µM (inactive)
58 | COC(=O)C1=C(C)NC(C)=C(C(=O)OC)C1C(=O)OC1CCCCC1=O (stereo unspecified) | > 8 µM (inactive)
59 | COc1ccc2c(C)nc(Nc3nc(C)cc(C)n3)nc2c1 | > 8 µM (inactive)
60 | COc1ccc(Cc2nc3ccc(S(N)(=O)=O)cc3[nH]2)cc1OC | > 8 µM (inactive)
61 | Fc1cc(F)c(F)c(SCCc2ccncc2)c1F | > 8 µM (inactive)
62 | CCn1c(=N)n(CC(=O)c2ccco2)c2ccccc21 | > 8 µM (inactive)
63 | CCN(CC(=O)NC(=O)NCc1ccco1)Cc1nc2ccccc2c(=O)[nH]1 | > 8 µM (inactive)
64 | CC1=CC=CC2=NC(=O)CC(C)(C(=O)N(CC(=O)NC(C)C)C3CCCC3)N12 (stereo unspecified) | > 8 µM (inactive)
65 | FC(F)Oc1cccc2cccnc12 | > 8 µM (inactive)
66 | Cn1cccc1Cc1nnc(SCC(=O)N2CCOCC2)n1-c1ccc(F)cc1 | > 8 µM (inactive)
67 | Nc1c2c(nc3ccccc13)N(c1ccccc1)CC2 | > 8 µM (inactive)
68 | CCOC(=O)C1CCCN(C(=O)c2cc3c(=O)n4cccc(C)c4nc3n2C)C1 (stereo unspecified) | > 8 µM (inactive)
69 | CCCCSc1nc(O)c(C2OC(=O)c3c2ccc(OC)c3OC)c(=O)n1C (stereo unspecified) | > 8 µM (inactive)

Row | SMILES | IC50
70 | O=C1COc2ccc(C(=O)NCc3ccco3)cc2N1 | > 8 µM (inactive)
71 | CC(C)C(C(=O)Nc1ccc2c(c1)OCO2)N1C(=O)c2ccccc2C1=O (stereo unspecified) | > 8 µM (inactive)
72 | C=CCOC(=O)COc1cc(C)cc2oc(=O)c3c(c12)CCC3 | > 8 µM (inactive)
73 | Cc1nnc(SCCn2c(N3CC(C)CC(C)C3)nc3c2c(=O)n(C)c(=O)n3C)s1 (stereo unspecified) | > 8 µM (inactive)
74 | O=c1cc(NCc2ccccc2)nc2n1CCCS2 | > 8 µM (inactive)
75 | Cc1ccc2[nH]c(=O)c(CN(CCc3ccccc3)Cc3nnnn3CC3CCCO3)cc2c1 (stereo unspecified) | > 8 µM (inactive)
76 | O=C(NCCN1CCOCC1)c1ccc(=O)oc1 | > 8 µM (inactive)
77 | O=C(Cc1cccs1)NCc1ccc(F)cc1 | > 8 µM (inactive)
78 | COc1ccc(CCNC(=O)C2=COCCO2)cc1 | > 8 µM (inactive)
79 | N#CCCn1cnc2ccccc21 | > 8 µM (inactive)
80 | CC1CCN(C(=O)CSc2nc3ccccc3[nH]2)CC1 | > 8 µM (inactive)
81 | COc1ccc(OC)c2[nH]c(=O)c(CCNC(=O)CC(C)C)cc12 | > 8 µM (inactive)
82 | C=CCn1c(-c2ccccc2)n[nH]c1=S | > 8 µM (inactive)
83 | O=C(Nc1ccc2[nH]c3c(c2c1)CCCC3)c1ccco1 | > 8 µM (inactive)
84 | CCOC(=O)c1sc(NC(=O)CSc2n[nH]c(-c3ccccc3)n2)c(C#N)c1C | > 8 µM (inactive)
85 | O=C(Nc1ccc(SC(F)F)cc1)c1ccc2nccnc2c1 | > 8 µM (inactive)
86 | C[C@H]1CCC/C=C/C2C[C@H](O)CC2[C@H](O)/C=C/C(=O)O1 (stereo partly specified) | < 0.01 µM
87 | O=C(OCc1ccc2c(c1)OCO2)c1ccc(S(=O)(=O)N2CCCCC2)cc1 | > 8 µM (inactive)
88 | CCN(CC)CCCNC(=O)c1cn(C)c2ccc(S(=O)(=O)N(C)C)cc2c1=O | > 8 µM (inactive)
89 | CCn1c(=O)n(CC(=O)N(C)Cc2ccccc2)c(=O)c2ccccc21 | > 8 µM (inactive)
90 | O=C(NCCCN1CCCC1=O)c1cncc(Br)c1 | > 8 µM (inactive)
91 | COc1ccc(Cl)cc1NC(=O)CSc1nncn1-c1cccnc1 | > 8 µM (inactive)
